T/C data for twelve molecules are collected here from PubChem BioAssay AID212 (DTP/NCI, 2004).

This assay relates to BDF1 mice, colon carcinoma 38 sc, T/C %. In words: NCI In Vivo Anticancer Drug Screen. Data for tumor model Colon Carcinoma 38 (subcutaneous) in B6D2F1 (BDF1) mice. The settings on record: endpoint: median tumor weight (est.), higher = larger tumour. In short, it runs like this: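 Mice with transplanted tumors are treated with compound or vehicle. Survival or tumor size is then measured in both groups. The ratio of treated to control gives the reported figure.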

Where [1] appears, read: dose: 100.0 mg/kg/injection, schedule: Q07DX002 (ip), vehicle: saline with Tween-80.
Where [2] appears, read: dose: 6.25 mg/kg/injection, schedule: Q07DX002 (ip), vehicle: saline.
Setting [3] is: dose: 12.5 mg/kg/injection, schedule: Q07DX002 (ip), vehicle: saline.
The mark [4] stands for this setting: dose: 25.0 mg/kg/injection, schedule: Q07DX002 (ip), vehicle: saline.
Setting [5] is: dose: 12.5 mg/kg/injection, schedule: Q07DX002 (ip), vehicle: saline with Tween-80.
The mark [6] stands for this setting: dose: 25.0 mg/kg/injection, schedule: Q07DX002 (ip), vehicle: saline with Tween-80.
[7] abbreviates: dose: 50.0 mg/kg/injection, schedule: Q07DX002 (ip), vehicle: saline with Tween-80.
[8] abbreviates: dose: 200.0 mg/kg/injection, schedule: Q07DX002 (ip), vehicle: saline with Tween-80.
Setting [9] is: dose: 400.0 mg/kg/injection, schedule: Q07DX002 (ip), vehicle: saline with Tween-80.

Several values for one entry are separate records, joined by “and”; a condition that tells them apart may be missing. Identical values can stand only once. Results filed as inconclusive are left out.

As to `OC1CCCC2CCCNC12` (stereo not given), the T/C runs as follows: (dose: 6.25 mg/kg/injection, schedule: Q07DX002 (ip), vehicle: Klucel (hydroxypropylcellulose) (HPC)) 102 % of control; (dose: 12.5 mg/kg/injection, schedule: Q07DX002 (ip), vehicle: Klucel (hydroxypropylcellulose) (HPC)) 100 % of control; (dose: 25.0 mg/kg/injection, schedule: Q07DX002 (ip), vehicle: Klucel (hydroxypropylcellulose) (HPC)) 85 % of control; (dose: 50.0 mg/kg/injection, schedule: Q07DX002 (ip), vehicle: Klucel (hydroxypropylcellulose) (HPC)) 100 % of control; (dose: 100.0 mg/kg/injection, schedule: Q07DX002 (ip), vehicle: Klucel (hydroxypropylcellulose) (HPC)) 109 % of control.

`CN1CCN(c2ccc([N+](=O)[O-])c3no[n+]([O-])c23)CC1`: the T/C is, setting by setting: (dose: 5.0 mg/kg/injection, schedule: Q07DX002 (ip), vehicle: saline with Tween-80) 105 % of control; (dose: 20.0 mg/kg/injection, schedule: Q07DX002 (ip), vehicle: saline with Tween-80) 77 % of control; (dose: 40.0 mg/kg/injection, schedule: Q07DX002 (ip), vehicle: saline with Tween-80) 68 % of control.

`S=C=NCCc1ccccc1`: under setting [1], the T/C is 82 % of control and 105 % of control.

`[Cl][Sn]([c]1ccccc1)[c]1ccccc1`: the T/C runs as follows: under setting [2], 113 % of control; under setting [3], 108 % of control; (dose: 12.5 mg/kg/injection, schedule: Q09DX002 (ip), vehicle: saline) 95 % of control; under setting [4], 89 % of control; (dose: 25.0 mg/kg/injection, schedule: Q09DX002 (ip), vehicle: saline) 93 % of control.

On to `COC1=C(C)C(=O)C2=C(C1=O)C1C3CC4=C(C(=O)C(OC)=C(C)C4=O)C(CNC(=O)C(C)=O)N3C(C#N)C(C2)N1C` (stereo not given), for which the T/C by setting is: (dose: 0.16 mg/kg/injection, schedule: Q07DX002 (ip), vehicle: Klucel (hydroxypropylcellulose) (HPC)) 56 % of control; (dose: 0.25 mg/kg/injection, schedule: Q07DX002 (ip), vehicle: Klucel (hydroxypropylcellulose) (HPC)) 98 % of control; (dose: 0.31 mg/kg/injection, schedule: Q07DX002 (ip), vehicle: Klucel (hydroxypropylcellulose) (HPC)) 84 % of control; (dose: 0.5 mg/kg/injection, schedule: Q07DX002 (ip), vehicle: Klucel (hydroxypropylcellulose) (HPC)) 84 % of control; (dose: 0.62 mg/kg/injection, schedule: Q07DX002 (ip), vehicle: Klucel (hydroxypropylcellulose) (HPC)) 80 % of control; (dose: 1.0 mg/kg/injection, schedule: Q07DX002 (ip), vehicle: Klucel (hydroxypropylcellulose) (HPC)) 87 % of control. Besides, the T/C was 53 % of control and 73 % of control (dose: 1.25 mg/kg/injection, schedule: Q07DX002 (ip), vehicle: Klucel (hydroxypropylcellulose) (HPC)); 72 % of control (dose: 2.0 mg/kg/injection, schedule: Q07DX002 (ip), vehicle: Klucel (hydroxypropylcellulose) (HPC)); 77 % of control (dose: 4.0 mg/kg/injection, schedule: Q07DX002 (ip), vehicle: Klucel (hydroxypropylcellulose) (HPC)).

For the molecule `Cc1c2cc(Cl)c3ccccc3c2c[n+]2ccccc12`, the T/C under setting [5] is 94 % of control and 102 % of control; the T/C under setting [6] is 116 % of control; the T/C under setting [7] was 108 % of control and 111 % of control; the T/C under setting [1] was 88 % of control and 98 % of control; the T/C under setting [8] is 99 % of control; the T/C under setting [9] is 120 % of control.

With `NC(=O)c1csc(C2OC(CO)C(O)C2O)n1` (stereo not given), the T/C reads like this: (dose: 50.0 mg/kg/injection, schedule: Q07DX002 (ip), vehicle: water) 154 % of control; (dose: 100.0 mg/kg/injection, schedule: Q07DX002 (ip), vehicle: water) 121 % of control and 106 % of control; (dose: 200.0 mg/kg/injection, schedule: Q07DX002 (ip), vehicle: water) 111 % of control and 92 % of control; (dose: 400.0 mg/kg/injection, schedule: Q07DX002 (ip), vehicle: water) 124 % of control and 104 % of control; (dose: 800.0 mg/kg/injection, schedule: Q07DX002 (ip), vehicle: water) 72 % of control.

Take `C[N+](C)(C)c1ncnc2c1ncn2C1CCCO1` (stereo not given): the T/C under setting [3] was 110 % of control; the T/C under setting [4] is 84 % of control; the T/C (dose: 50.0 mg/kg/injection, schedule: Q07DX002 (ip), vehicle: saline) is 61 % of control and 77 % of control; the T/C (dose: 200.0 mg/kg/injection, schedule: Q07DX002 (ip), vehicle: saline) is 65 % of control and 89 % of control.

In the case of `Nc1cc2c(c[n+](CCCCCCCC[n+]3cc4c5ccccc5c(N)cc4c4ccccc43)c3ccccc23)c2ccccc12`, the T/C (dose: 7.5 mg/kg/injection, schedule: Q07DX002 (ip), vehicle: water) was 108 % of control; the T/C (dose: 15.0 mg/kg/injection, schedule: Q07DX002 (ip), vehicle: water) is 82 % of control; the T/C (dose: 30.0 mg/kg/injection, schedule: Q07DX002 (ip), vehicle: water) was 94 % of control; the T/C (dose: 60.0 mg/kg/injection, schedule: Q07DX002 (ip), vehicle: water) was 53 % of control.

Regarding `O=C(O)c1ccc(C(=O)O)c(C(=O)O)c1.[NH-]C1CCCCC1[NH-].[Pt+2]`, the T/C is, setting by setting: (dose: 1.56 mg/kg/injection, schedule: Q07DX002 (ip), vehicle: sodium bicarbonate) 110 % of control; (dose: 3.12 mg/kg/injection, schedule: Q07DX002 (ip), vehicle: sodium bicarbonate) 124 % of control; (dose: 3.12 mg/kg/injection, schedule: Q07DX003 (ip), vehicle: sodium bicarbonate) 20 % of control; (dose: 6.25 mg/kg/injection, schedule: Q07DX002 (ip), vehicle: sodium bicarbonate) 70 % of control; (dose: 6.25 mg/kg/injection, schedule: Q07DX003 (ip), vehicle: sodium bicarbonate) 24 % of control; (dose: 12.5 mg/kg/injection, schedule: Q07DX003 (ip), vehicle: sodium bicarbonate) 10 % of control. In addition, the T/C was 20 % of control and 36 % of control and 44 % of control (dose: 25.0 mg/kg/injection, schedule: Q07DX002 (ip), vehicle: sodium bicarbonate); 33 % of control (dose: 50.0 mg/kg/injection, schedule: Q07DX002 (ip), vehicle: sodium bicarbonate).

`Cc1c(N)nc(C(CC(N)=O)NCC(N)C(N)=O)nc1C(=O)NC(C(=O)NC(C)C(O)C(C)C(=O)NC(C(=O)NCCc1nc(-c2nc(C(=O)NCCCNCCCc3ccccn3)cs2)cs1)C(C)O)C(OC1OC(CO)C(O)C(O)C1OC1OC(CO)C(O)C(OC(N)=O)C1O)c1cnc[nH]1` (stereo not given): the T/C is 96 % of control (dose: 0.1 mg/kg/injection, schedule: Q07DX003 (ip), vehicle: saline); 67 % of control (dose: 0.2 mg/kg/injection, schedule: Q07DX003 (ip), vehicle: saline); 81 % of control (dose: 0.4 mg/kg/injection, schedule: Q07DX002 (ip), vehicle: water); 72 % of control (dose: 0.4 mg/kg/injection, schedule: Q07DX003 (ip), vehicle: saline); 66 % of control (dose: 0.8 mg/kg/injection, schedule: Q07DX002 (ip), vehicle: water); 105 % of control (dose: 0.8 mg/kg/injection, schedule: Q07DX003 (ip), vehicle: saline). Besides, the T/C reads like this: (dose: 1.6 mg/kg/injection, schedule: Q07DX002 (ip), vehicle: water) 75 % of control; (dose: 1.6 mg/kg/injection, schedule: Q07DX003 (ip), vehicle: saline) 71 % of control; (dose: 3.2 mg/kg/injection, schedule: Q07DX002 (ip), vehicle: water) 72 % of control; (dose: 3.2 mg/kg/injection, schedule: Q07DX003 (ip), vehicle: saline) 60 % of control; under setting [2], 70 % of control; (dose: 6.4 mg/kg/injection, schedule: Q07DX002 (ip), vehicle: water) 41 % of control. The T/C was 45 % of control (dose: 12.8 mg/kg/injection, schedule: Q07DX002 (ip), vehicle: water); 32 % of control and 33 % of control under setting [4]; 29 % of control (dose: 100.0 mg/kg/injection, schedule: Q07DX002 (ip), vehicle: saline).

For the molecule `C/C(=N\NC(N)=O)c1cccc(/C(C)=N/NC(N)=O)n1`, the T/C is 87 % of control and 94 % of control under setting [5]; 66 % of control and 71 % of control under setting [6]; 73 % of control and 96 % of control under setting [7]; 96 % of control under setting [8]; 57 % of control under setting [9].
